Here are results for 16 compounds from patent publication US20230295152A1 (SENDA BIOSCIENCES, INC., priority 2019, published 2023).

The structures appear in SMILES notation. Where two headings read alike, the source gives them in different places.

A word on the Cmax: it is the peak of the concentration-time curve. One may read the Tmax as the time at which the peak concentration occurs.

A short description of series [1]: Plasma Protein Binding with Ultracentrifugation Method, mouse. In kind it is in vitro ADME. As to conditions: for fraction unbound at 30 min, 1 μM: mouse plasma, read-out: Mouse plasma protein binding (% bound). As to the method: The frozen plasma (stored at −80° C.) was thawed in a 37° C. water bath, followed by centrifugation at 3,220 g for 10 minutes to remove clots. The supernatant was removed into a new tube as the spun plasma. The spun plasma was pre-warmed in a 37° C. water bath for 10 minutes. The stock solutions of test compounds were diluted to 200 μM in DMSO, and then spiked into the plasma. Duplicate samples were prepared. The final concentration of compound was 1.0 μM. The final concentration of organic solvent was 0.5%. Warfarin was used as positive control in the assay. 1.0 mL of the spiked plasma was transferred to a new balance ultracentrifuge tube. Samples were incubated at 37° C., 5% CO2 for 30 minutes. After incubation, the balance ultracentrifuge tubes were centrifuged at 600,000 g for 5.5 hours at 37° C. After centrifugation, 50 μL solution was removed from the center of the ultracentrifuge tubes as the post-ultracentrifugation samples, followed by the addition of 50 μL blank plasma and 400 μL quench solution (acetonitrile containing internal standards (IS, 100 nM Alprazolam, 500 nM Labetalol and 2 μM Ketoprofen)) to precipitate protein and release compounds. Samples were vortexed for 2 minutes, followed by centrifugation at 20,000 g for 15 minutes at room temperature. The supernatant was diluted with ultrapure water and then used for LC-MS/MS analysis. Stability samples was prepared by transferring 50 μL of the spiked plasma to 0.6 mL tubes and incubated at 37° C., 5% CO2 for 0.5 and 6 hours. After incubation, 50 μL PBS (100 mM, pH7.4) and 400 μL quench solution were added to the stability samples. And then stability samples were treated the same way as the post-ultracentrifugation samples. The supernatant was diluted with ultrapure water and then used for LC-MS/MS analysis. 0.5 hour time point samples were also used as no-spun controls. Time 0 samples were prepared by transferring 50 μL spiked plasma to 0.6 mL tubes containing 50 μL PBS, followed by the addition of 400 μL quench solution to precipitate protein and release compound. And then these samples were treated the same way as the post-ultracentrifugation samples. The supernatant was diluted with ultrapure water and then used for LC-MS/MS analysis.
Data Analysis: All calculations were carried out using Microsoft Excel. The concentrations of test compound in plasma samples and post-ultracentrifugation plasma was determined from peak areas. The percentages of test compound bound was calculated as follows: […]
“+++” indicates a % bound value less than 50, “++” indicates a % bound value between 50 and 75, and “+” indicates a % bound value above 75.

Series [2] can be described thus: In vivo PK study in male CD1 mice. As to conditions: for AUC(0-t): read-out: AUCLast Mean. As to the method: The studies were conducted in male Sprague Dawley rats, three rats per group, or male CD1 mice, three mice per group. Compounds were dosed 1.0 mg/Kg i.v. (vehicle ethanol: % PEG400 in deionized water, in proportions suitable for dosing a clear solution) and 3.0 mg/kg or 10 mg/kg p.o. (vehicle: 1% methyl cellulose: 1,500 cP in DI water (w/v)). A11 animals had free access to food and water. Rat i.v. PK time points: Plasma: 0.083, 0.25, 0.5, 1, 2, 4, 8 and 24 h; Rat p.o. PK time points: Plasma: 0.25, 0.5, 1, 2, 4, 8 and 24 h. Mouse i.v. PK time points: Plasma: 0.083, 0.25, 0.5, 1, 2, 4, 8, 24, and 48 h; Mouse p.o. PK time points: Plasma: 0.25, 0.5, 1, 2, 4, 8, 24, and 48 h. Concentrations of compound in the plasma samples were analyzed using a LC-MS/MS method. WinNonlin (Phoenix™, version 6.1) or other similar software was used for pharmacokinetic calculations.

Series [3] can be described thus: Hepatocyte Stability Assay, mouse. For all read-outs here: tested at 1 µM. In kind it is in vitro ADME. To be noted: for Mouse hepatocyte clearance: mouse hepatocytes. As to the method:
Example 7: Hepatocyte Stability Assay
• Preparation of working solutions: 10 mM stock solutions of test compound and positive control were prepared in DMSO. In separate conical tubes, the 10 mM solution of test compound and the positive control were diluted to 100 μM by combining 198 μL of 50% acetonitrile/50% water and 2 μL of 10 mM stock.
Data Analysis: All calculations were carried out using Microsoft Excel. Peak areas were determined from extracted ion chromatograms. In vitro half-life (t1/2) of parent compound was determined by regression analysis of the percent parent disappearance vs. time curve.
The in vitro half-life (in vitro t1/2) was determined from the slope value:
Conversion of the in vitro t1/2 (in min) into the in vitro intrinsic clearance (in vitro CLint, in μL/min/1×10^6 cells) was done using the following equation (mean of duplicate determinations):
V=incubation volume(0.2 mL);
N=number of hepatocytes per well(0.1×10^6 cells).

Where [4] appears, read: male, CD1, mouse, plasma, mice, 1 mg/kg IV.
Setting [5] is: male, CD1, mouse, plasma, mice, 1 mg/kg IV, read-out: T1/2 Mean (converted).
[6] abbreviates: male, CD1, mouse, plasma, mice, 10 mg/kg PO.
The mark [7] stands for this setting: male, CD1, mouse, plasma, mice, 10 mg/kg PO, read-out: Bioavailability.
The mark [8] stands for this setting: male, CD1, mouse, plasma, mice, 10 mg/kg PO, read-out: T1/2 Mean (converted).

`O=c1c2cc(-c3ccc(C(F)(F)F)nc3)nc(-c3cccnc3)c2ncn1[C@@H]1COC[C@H]1O` [Compound 79]: the fraction unbound at 30 min, 1 μM in series [1] is under 0.25.
On to `CC(C)(O)Cn1cnc2c(-c3cccnc3)nc(-c3ccc(C(F)(F)F)cn3)cc2c1=O` [Compound 105], for which, in series [2] (setting [4]), the C0 is 412 ng/mL and the AUC(0-t) was 11300 ng·h/mL. Moreover, the half-life in series [2] (setting [5]) is 55.9 h. Further, in series [2] (setting [6]), the Cmax turned out to be 2350 ng/mL, the Tmax was determined as 12 h and the AUC(0-t) is 96100 ng·h/mL. Moreover, the bioavailability in series [2] (setting [7]) is 85%. Moreover, the half-life in series [2] (setting [8]) was 48.5 h. The “CI Mean” value in series [2] (mice, 1 mg/kg IV) was found to be 11.4 mL/min/kg. Further, in series [1], the fraction unbound at 30 min, 1 μM is under 0.25. Also, the Mouse hepatocyte clearance entry in series [3] was “++ (“++” indicates a CLint between 20 and 50 mL/min/Kg)”.
With `Cn1cc(-c2nc(-c3ccc(C(F)(F)F)cn3)cc3c(=O)n(CC(C)(C)O)cnc23)cn1` [Compound 103, 3-(2-hydroxy-2-methylpropyl)-8-(1-methyl-1H-pyrazol-4-yl)-6-(5-(trifluoromethyl)pyridin-2-yl)pyrido[3,4-d]pyrimidin-4(3H)-one], in series [2] (setting [4]), the C0 came to 349 ng/mL and the AUC(0-t) worked out at 10400 ng·h/mL. Besides, the half-life in series [2] (setting [5]) is 69.5 h. Moreover, in series [2] (setting [6]), the Cmax was 152 ng/mL, the Tmax stood at 13.3 h and the AUC(0-t) is 6060 ng·h/mL. Moreover, the bioavailability in series [2] (setting [7]) turned out to be 5.82%. Further, the “CI Mean” value in series [2] (mice, 1 mg/kg IV) was determined as 10.7 mL/min/kg. In series [1], the fraction unbound at 30 min, 1 μM is under 0.25.
Take `O=c1c2cc(-c3ccc(Cl)cc3)nc(-c3cccnc3)c2ncn1[C@H]1COC[C@@H]1O` [Compound 125, 6-(4-chlorophenyl)-3-((3S,4R)-4-hydroxytetrahydrofuran-3-yl)-8-(pyridin-3-yl)pyrido[3,4-d]pyrimidin-4(3H)-one]: the fraction unbound at 30 min, 1 μM in series [1] was under 0.25.
With `C[C@@H](CO)n1cnc2c(-c3cccnc3)nc(-c3ccc(C(F)(F)F)cn3)cc2c1=O` [Compound 46, (S)-3-(1-hydroxypropan-2-yl)-8-(pyridin-3-yl)-6-(5-(trifluoromethyl)pyridin-2-yl)pyrido[3,4-d]pyrimidin-4(3H)-one], the “Mouse CL (% Qh)” value in series [2] (in vivo DMPK profile, mouse) is 2 % Qh. This compound also showed a C0 in series [2] (setting [4]) of 470 ng/mL. For the same compound, the AUC(0-t) in series [2] (setting [4]) is 8400 ng·h/mL; in series [2] (setting [6]), 67700 ng·h/mL. Further, the half-life in series [2] (setting [5]) is 15.7 h; in series [2] (setting [8]) it was 8 h; in series [2] (male, CD1, plasma, intravenous, 1 mg/kg, in vivo DMPK profile, mouse, read-out: Mouse T1/2 (converted)) it was 15.7 h. Further, the Cmax in series [2] (setting [6]) amounted to 2370 ng/mL. The bioavailability was determined as 80.6% in series [2] (setting [7]) and 80.6% in series [2] (male, CD1, plasma, oral, 10 mg/kg, in vivo DMPK profile, mouse, read-out: Mouse % F). Moreover, in series [2] (male, CD1, plasma, intravenous, 1 mg/kg, in vivo DMPK profile, mouse, read-out: Mouse CL), the clearance was determined as 1.8 mL/min/kg. Also, the Vd in series [2] (male, CD1, plasma, intravenous, 1 mg/kg, in vivo DMPK profile, mouse, read-out: Mouse Vss) was 2.3 L/kg. Further, the “CI Mean” value in series [2] (mice, 1 mg/kg IV) was determined as 29.3 mL/min/kg. For the same compound, the fraction unbound at 30 min, 1 μM in series [1] was under 0.25. For the same compound, in series [1] (mouse, plasma, read-out: Plasma Protein Binding PPB (m) % (converted)), the fraction unbound at 5.5 h, 1 μM was 0.075. Further, the Mouse hepatocyte clearance result in series [3] was “++ (“++” indicates a CLint between 20 and 50 mL/min/Kg)”. Also, the “Suspension mou. heps Clint (% Qh)” value in series [3] (suspension mouse hepatocytes) is reported as under 33 % Qh.
In the case of `CC(C)(O)Cn1cnc2c(-c3cccnc3)nc(-c3ccc(Cl)cc3)cc2c1=O` [Compound 18], in series [2] (setting [4]), the C0 worked out at 333 ng/mL and the AUC(0-t) amounted to 6770 ng·h/mL. The half-life in series [2] (setting [5]) is 20.7 h. Moreover, in series [2] (setting [6]), the peak level (Cmax) was 1310 ng/mL, the time to peak (Tmax) came to 6.67 h and the AUC(0-t) is 45800 ng·h/mL. Also, the bioavailability in series [2] (setting [7]) was found to be 67.6%. In addition, in series [2] (setting [8]), the half-life is 23.4 h. The “CI Mean” value in series [2] (mice, 1 mg/kg IV) was 33.7 mL/min/kg. Moreover, the fraction unbound at 30 min, 1 μM in series [1] is under 0.25. Moreover, the Mouse hepatocyte clearance result in series [3] is given as “+ (“+” indicates an CLint above 50 mL/min/Kg)”.
For `CC(C)(O)Cn1cnc2c(-c3cccnc3)nc(-c3ccc(C(F)(F)F)cc3)cc2c1=O` [Compound 16], the fraction unbound at 30 min, 1 μM in series [1] was under 0.25. In addition, the Mouse hepatocyte clearance result in series [3] is “++ (“++” indicates a CLint between 20 and 50 mL/min/Kg)”.
`C[C@@H](CO)n1cnc2c(-c3cnsc3)nc(-c3ccc(Cl)cc3)cc2c1=O` [Compound 58]: the Mouse hepatocyte clearance result in series [3] was “++ (“++” indicates a CLint between 20 and 50 mL/min/Kg)”.
Take `C[C@@H](CO)n1cnc2c(-c3cccnc3)nc(-c3ccc(C(F)(F)F)nc3)cc2c1=O` [Compound 12]: in series [1], the fraction unbound at 30 min, 1 μM is under 0.25. Moreover, the Mouse hepatocyte clearance entry in series [3] is “++ (“++” indicates a CLint between 20 and 50 mL/min/Kg)”.
Take `C[C@@H](CO)n1cnc2c(-c3cnn(C)c3)nc(-c3ccc(C(F)(F)F)nc3)cc2c1=O` [Compound 68]: the fraction unbound at 30 min, 1 μM in series [1] was under 0.25.
Consider `Cn1cc(-c2nc(-c3ccc(Cl)cc3)cc3c(=O)n(CC(C)(C)O)cnc23)cn1` [Compound 21], for which, in series [1], the fraction unbound at 30 min, 1 μM is under 0.25. Further, the Mouse hepatocyte clearance result in series [3] is “++ (“++” indicates a CLint between 20 and 50 mL/min/Kg)”.
On to `O=c1c2cc(-c3ccc(Cl)cc3)nc(-c3cccnc3)c2ncn1C[C@@H](O)C(F)(F)F` (single isomer, unassigned) [185 enantiomer 1], for which the Mouse hepatocyte clearance result in series [3] is recorded as “+ (“+” indicates an CLint above 50 mL/min/Kg)”.
In the case of `C[C@@H](CO)n1cnc2c(-c3cccc(F)c3)nc(-c3ccc(Cl)cc3)cc2c1=O` [Compound 7], the fraction unbound at 30 min, 1 μM in series [1] was under 0.25. The Mouse hepatocyte clearance entry in series [3] is “++ (“++” indicates a CLint between 20 and 50 mL/min/Kg)”.
With `O=c1c2cc(-c3ccc(Cl)cc3)nc(-c3cccnc3)c2ncn1C[C@H](O)C(F)(F)F` (single isomer, unassigned) [185 enantiomer 2], the Mouse hepatocyte clearance result in series [3] is “+ (“+” indicates an CLint above 50 mL/min/Kg)”.
On the same count and under the same terms, as for `C[C@@H](CO)n1cnc2c(-c3cccnc3)nc(-c3ccc(C4CC4)nc3)cc2c1=O` [Compound 74], the entry is “+ (“+” indicates an CLint above 50 mL/min/Kg)”.
For the compound `C[C@@H](CO)n1cnc2c(-c3cccnc3)nc(-c3ccc(OC(F)(F)F)cc3)cc2c1=O` [Compound 22], the fraction unbound at 30 min, 1 μM in series [1] is under 0.25. Also, in series [3], the Mouse hepatocyte clearance result is “++ (“++” indicates a CLint between 20 and 50 mL/min/Kg)”.
